{
  "source": "paper PMC4438233",
  "about": "“Antibacterial effects of Traditional Chinese Medicine monomers against Streptococcus pneumoniae via inhibiting pneumococcal histidine kinase (VicK)” (Frontiers in Microbiology, 2015)",
  "key": {"S. mitis": {"tested_on": "S. mitis", "assay": "MIC against S. mitis", "type": "cell-based", "conditions": "Streptococcus mitis", "experimental": "(§1) Minimum inhibitory concentration (MIC) assays for the antibacterial activities of the compounds were performed according to the standard […] method of the Clinical and Laboratory Standards Institute of America. MIC testing of drug-resistant S. pneumoniae, drug-resistant S. aureus, streptococci and antimicrobial combination was also performed using the same method. Briefly, the drugs were serially diluted 2-fold into eight wells with C+Y medium, yielding final concentrations ranging from […]. Then 10^6 CFU bacteria were added to each well. Inoculated medium containing 1% DMSO served as a bacterial growth control, whereas uninoculated medium served as a sterility control. The plates were incubated at 37°C for 12–16 h. […] The experiment was repeated three times."}, "S. pneumoniae NCTC7466 [1]": {"tested_on": "S. pneumoniae NCTC7466", "assay": "Mouse sepsis model, survival time", "type": "in vivo, BALB/c mice", "conditions": "i.p. infection 1 × 10^3 CFU, drug i.p. thrice a day for 3 d, untreated control 28.8 ± 1.25", "experimental": "Female BALB/c mice (12–15 per group) aged 4–6 weeks were used to evaluate the antimicrobial effects of the compounds in vivo. In sepsis models, the mice were intraperitoneally infected with 100 μL S. pneumoniae NCTC7466 strain suspension (1 × 10^3 CFU). […] Two control groups were injected with 100 μL 1% DMSO (dissolved the drugs, negative control) or PEN (0.42 mg/kg/d, positive control) following the same injection route. The result was expressed as cumulative survival times following 7 d of observation."}, "S. pneumoniae NCTC7466 [2]": {"tested_on": "S. pneumoniae NCTC7466", "assay": "MIC against S. pneumoniae NCTC7466 (D39)", "type": "cell-based", "conditions": "Streptococcus pneumoniae, NCTC7466", "experimental": "as §1"}, "S. pseudopneumoniae": {"tested_on": "S. pseudopneumoniae", "assay": "MIC against S. pseudopneumoniae", "type": "cell-based", "conditions": "Streptococcus pseudopneumoniae", "experimental": "as §1"}, "[3]": {"tested_on": "Penicillin-resistant S. pneumoniae strains", "assay": "Checkerboard test with penicillin against penicillin-resistant S. pneumoniae", "type": "cell-based, Streptococcus pneumoniae", "conditions": "Streptococcus pneumoniae, agent alone", "experimental": "as §1\nThe antimicrobial effects of different combinations of two antimicrobial agents were assayed using the checkerboard test (Bajaksouzian et al., [1997]). Each experiment was repeated thrice. The in vitro interaction between the five drugs with PEN was quantified by the fractional inhibitory concentration (FIC). The FIC index (FICI) was calculated using the following formula:\n(§2) (2) FIC=FICA+FICB=[A]/MICA+[B]/MICB\n(§3) where [A] and [B] are the concentrations of drugs A and B, respectively; MICA and FICA are the MIC and FIC of drug A for the organism, respectively; and MICB, and FICB are the MIC and FIC of drug B for the organism, respectively. The FIC index obtained was interpreted as follows: =0.5, synergy; FIC > 2.0, antagonism (Gupta and Kohli, [2003])."}, "S. pneumoniae": {"tested_on": "S. pneumoniae", "assay": "Checkerboard test with erythromycin or tetracycline against S. pneumoniae", "type": "cell-based, Streptococcus pneumoniae", "experimental": "The antimicrobial effects of different combinations of two antimicrobial agents were assayed using the checkerboard test (Bajaksouzian et al., [1997]). Each experiment was repeated thrice. […] The FIC index (FICI) was calculated using the following formula:\nas §2, §3"}, "Cytotoxicity assay (MTT)": {"assay": "Cytotoxicity assay (MTT)", "type": "cell-based", "conditions": "African green monkey, Vero cells", "experimental": "The cytotoxicity of the drugs to Vero cells (African green monkey kidney cells) was detected as previously described (Huang et al., [2012]) with minor modifications. In 96-well cell culture plates, the cells (~10^3 cells per well) were exposed to the serially diluted drugs for 48 h. Then, relative cell numbers were assayed by co-incubation with 3-(4, 5-dimethylthiazol-2-yl)-2, 5-diphenyltetrazolium bromide for 4 h at 37°C in 5% CO2. Purple formazan salts were dissolved with DMSO after incubation. The absorbance of each well was measured at 595 nm and then converted to percentages of the control (cells treated with 1% DMSO). The concentration of the derivatives with 50% cytotoxicity for Vero cells (CC50) was calculated using GraphPad Prism 5 (San Diego, CA)."}, "S. mutans": {"tested_on": "S. mutans", "assay": "MIC against S. mutans", "type": "cell-based", "conditions": "Streptococcus mutans", "experimental": "as §1"}, "S. pyogenes": {"tested_on": "S. pyogenes", "assay": "MIC against S. pyogenes", "type": "cell-based", "conditions": "Streptococcus pyogenes", "experimental": "as §1"}, "full-length VicK protein": {"molecular_target": "T1, full-length VicK protein (Streptococcus pneumoniae, UniProt Q8DPL8)", "T1 construct": "6 His; made in house", "T1 sequence (Q8DPL8 whole entry)": "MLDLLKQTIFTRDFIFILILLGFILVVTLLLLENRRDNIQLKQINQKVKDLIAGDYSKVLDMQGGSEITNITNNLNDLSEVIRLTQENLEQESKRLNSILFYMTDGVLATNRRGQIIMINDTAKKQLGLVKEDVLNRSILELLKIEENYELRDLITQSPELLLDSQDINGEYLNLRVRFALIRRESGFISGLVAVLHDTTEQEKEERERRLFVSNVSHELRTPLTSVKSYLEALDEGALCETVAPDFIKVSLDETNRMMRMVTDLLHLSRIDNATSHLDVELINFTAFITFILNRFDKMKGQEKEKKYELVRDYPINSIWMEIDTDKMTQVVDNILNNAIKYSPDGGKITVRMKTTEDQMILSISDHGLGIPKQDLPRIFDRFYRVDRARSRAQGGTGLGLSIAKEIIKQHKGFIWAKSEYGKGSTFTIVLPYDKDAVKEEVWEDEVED", "assay": "Inhibition assay for ATPase activity of VicK (Kinase-Glo Luminescent Kinase Assay)", "type": "biochemical", "conditions": "6 μg VicK, 5 μM ATP, read-out: IC50 (inhibition of VicK ATPase activity / autophosphorylation) (converted)", "experimental": "The inhibitory activities of the Chinese medicine monomers for the ATPase activity of the full-length VicK protein were evaluated using the Kinase-Glo™Luminescent Kinase Assay (Promega, Madison, USA). Briefly, 6 μg VicK protein was pre-incubated with a series of dilution of compounds in the reaction buffer at 37°C for 30 min. 5 μM ATP was added and incubated for another 30 min. Kinase-Glo™Reagent was also added to detect the remaining ATP recorded from luminescence measurements (RLU). In parallel, the VicK protein with no addition of compounds was used as a control, and the mixture with compounds excluding the VicK protein served as another control. The rate of protein phosphorylation (Rp) inhibition by the compounds was calculated from Equation (1).\n(1) Rp=1−RLU(compound+ATP+Reagent) −RLU(compound+ATP+vick+Reagent)/RLU(ATP +Reagent)−RLU(ATP+vick+Reagent)×100%\nThe half maximal inhibitory concentration (IC50), which is the concentration of inhibition of 50% VicK protein autophosphorylation, was determined by GraphPad Prism 5 (Qin et al., [2006])."}, "pneumococcal strains": {"tested_on": "pneumococcal strains", "assay": "MIC against clinical pneumococcal strains (penicillin susceptible, intermediate, resistant)", "type": "cell-based, Streptococcus pneumoniae", "conditions": "for MIC50 / MIC90: Streptococcus pneumoniae", "experimental": "as §1"}, "[4]": {"conditions": "in combination with Erythromycin"}},
  "note": "“And” between values parts separate entries of the source, which are not always exact repeats. Equal values may be shown once. Read-outs that look alike come from different tables or passages of the source.",
  "data": [
    {"compound": "COC1=CC(=O)O[C@@H](/C=C/c2ccc3c(c2)OCO3)C1", "note": "[Compound 4, Kavahin]", "values": [
      {"measurement": "MIC", "setting": "S. mitis", "value": 274, "unit": "µg/mL"},
      {"measurement": "Mean survival of mice ± SEM", "setting": "S. pneumoniae NCTC7466 [1]; listed as Kavahin", "value": "71.1 ± 7.1", "unit": "h"},
      {"measurement": "Mean survival of mice ± SEM", "setting": "S. pneumoniae NCTC7466 [1]; listed as kavahin", "value": 71, "unit": "h"},
      {"measurement": "MIC", "setting": "S. pneumoniae NCTC7466 [2]", "value": "68.5 µg/mL and 250 µM"},
      {"measurement": "MIC", "setting": "S. pseudopneumoniae", "value": 34, "unit": "µg/mL"},
      {"measurement": "MIC", "setting": "[3]; read-out: MIC, Alone, strain 652336", "value": 548, "unit": "µg/mL"},
      {"measurement": "MIC", "setting": "[3]; read-out: MIC, Alone, strain 736007", "value": 274, "unit": "µg/mL"},
      {"measurement": "MIC", "setting": "[3]; read-out: MIC, Alone, strain 8364981", "value": 548, "unit": "µg/mL"},
      {"measurement": "MIC", "setting": "[3]; read-out: MIC, Alone, strain 12092624", "value": 274, "unit": "µg/mL"},
      {"measurement": "FICI", "setting": "S. pneumoniae; [4]", "value": 0.5},
      {"measurement": "Outcome", "setting": "S. pneumoniae; [4]", "value": "Synergy (=0.5, synergy)"},
      {"measurement": "FICI", "setting": "S. pneumoniae; in combination with Tetracycline", "value": 0.51},
      {"measurement": "CC50 at 48 h", "setting": "Cytotoxicity assay (MTT)", "value": "> 8000", "unit": "µM"},
      {"measurement": "MIC", "setting": "S. mutans", "value": 274, "unit": "µg/mL"},
      {"measurement": "MIC", "setting": "S. pyogenes", "value": 274, "unit": "µg/mL"},
      {"measurement": "IC50", "setting": "full-length VicK protein", "value": 4.6, "unit": "µM"},
      {"measurement": "IC50", "setting": "full-length VicK protein; value in parentheses", "value": 4.56, "unit": "µM"},
      {"measurement": "MIC of pneumococcal strains, Range", "setting": "pneumococcal strains; Penicillin intermediate (n = 12)", "value": "68 to 518", "unit": "µg/mL"},
      {"measurement": "MIC of pneumococcal strains, Range", "setting": "pneumococcal strains; Penicillin resistant (n = 15)", "value": "68.5 to 548", "unit": "µg/mL"},
      {"measurement": "MIC of pneumococcal strains, Range", "setting": "pneumococcal strains; Penicillin susceptible (n = 7)", "value": "34 to 272", "unit": "µg/mL"},
      {"measurement": "MIC50", "setting": "pneumococcal strains; read-out: MIC of pneumococcal strains, MIC50, Penicillin intermediate (n = 12)", "value": 137, "unit": "µg/mL"},
      {"measurement": "MIC50", "setting": "pneumococcal strains; read-out: MIC of pneumococcal strains, MIC50, Penicillin resistant (n = 15)", "value": 274, "unit": "µg/mL"},
      {"measurement": "MIC50", "setting": "pneumococcal strains; read-out: MIC of pneumococcal strains, MIC50, Penicillin susceptible (n = 7)", "value": 68.5, "unit": "µg/mL"},
      {"measurement": "MIC90", "setting": "pneumococcal strains; read-out: MIC of pneumococcal strains, MIC90, Penicillin intermediate (n = 12)", "value": 274, "unit": "µg/mL"},
      {"measurement": "MIC90", "setting": "pneumococcal strains; read-out: MIC of pneumococcal strains, MIC90, Penicillin resistant (n = 15)", "value": 548, "unit": "µg/mL"},
      {"measurement": "MIC90", "setting": "pneumococcal strains; read-out: MIC of pneumococcal strains, MIC90, Penicillin susceptible (n = 7)", "value": 136, "unit": "µg/mL"}
    ]}
  ]
}
